Laboratory results as given in the supplement of paper PMC10307832.

Experiments:
Experiment in all cases: relative viability (nuclei count vs DMSO), 5 days (fraction); higher = more cells survive
Adavosertib + Tozasertib = compound: C=CCn1c(=O)c2cnc(Nc3ccc(N4CCN(C)CC4)cc3)nc2n1-c1cccc(C(C)(C)O)n1 [Adavosertib] + Cc1cc(Nc2cc(N3CCN(C)CC3)nc(Sc3ccc(NC(=O)C4CC4)cc3)n2)n[nH]1 [Tozasertib] (partner 0.1 µM)
Method in brief: (§1)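 After 5 days of treatment, lung cancer cells in 1536-well plates were fixed and stained in a single step (final 0.05% Triton X-100, 1% formaldehyde, 1 ug/ml Hoechst) and their nuclei counted on 4× images. Treatment had been applied by pin tool the day after seeding as one drug alone or as a fixed anchor-drug dose with five library-drug doses (not always all listed) in √10 steps. Relative viability is the nuclei count of treated wells divided by that of vehicle wells, and values are medians of duplicate plates.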

Nelarabine + Navitoclax = compound: COc1nc(N)nc2c1ncn2[C@@H]1O[C@H](CO)[C@@H](O)[C@@H]1O [Nelarabine] + CC1(C)CCC(c2ccc(Cl)cc2)=C(CN2CCN(c3ccc(C(=O)NS(=O)(=O)c4ccc(N[C@H](CCN5CCOCC5)CSc5ccccc5)c(S(=O)(=O)C(F)(F)F)c4)cc3)CC2)C1 [Navitoclax] (partner 0.5 µM)
Method in brief: as §1

Nelarabine + Linsitinib = compound: COc1nc(N)nc2c1ncn2[C@@H]1O[C@H](CO)[C@@H](O)[C@@H]1O [Nelarabine] + C[C@]1(O)C[C@@H](c2nc(-c3ccc4ccc(-c5ccccc5)nc4c3)c3c(N)nccn32)C1 [Linsitinib] (partner 1 µM)
Method in brief: as §1

Nelarabine + Palbociclib = compound: COc1nc(N)nc2c1ncn2[C@@H]1O[C@H](CO)[C@@H](O)[C@@H]1O [Nelarabine] + CC(=O)c1c(C)c2cnc(Nc3ccc(N4CCNCC4)cn3)nc2n(C2CCCC2)c1=O [Palbociclib] (partner 0.5 µM)
Method in brief: as §1

Cell Line | relative viability (Adavosertib + Tozasertib; first compound 0.01 µM) | relative viability (Adavosertib + Tozasertib; first compound 0.03162 µM) | relative viability (Adavosertib + Tozasertib; first compound 0.1 µM) | relative viability (Adavosertib + Tozasertib; first compound 0.3162 µM) | relative viability (Nelarabine + Navitoclax; first compound 0.01 µM) | relative viability (Nelarabine + Navitoclax; first compound 0.03162 µM) | relative viability (Nelarabine + Navitoclax; first compound 0.1 µM) | relative viability (Nelarabine + Navitoclax; first compound 0.3162 µM) | relative viability (Nelarabine + Navitoclax; first compound 1 µM) | relative viability (Nelarabine + Linsitinib; first compound 0.01 µM) | relative viability (Nelarabine + Linsitinib; first compound 0.03162 µM) | relative viability (Nelarabine + Linsitinib; first compound 0.1 µM) | relative viability (Nelarabine + Linsitinib; first compound 0.3162 µM) | relative viability (Nelarabine + Linsitinib; first compound 1 µM) | relative viability (Nelarabine + Palbociclib; first compound 0.01 µM) | relative viability (Nelarabine + Palbociclib; first compound 0.03162 µM) | relative viability (Nelarabine + Palbociclib; first compound 0.1 µM) | relative viability (Nelarabine + Palbociclib; first compound 0.3162 µM) | relative viability (Nelarabine + Palbociclib; first compound 1 µM)
NCI-H2087 | 0.303 | 0.258 | 0.273 | 0.234 | 1.02 | 0.944 | 0.971 | 0.9 | 0.979 | 1.06 | 0.897 | 1.06 | 1.05 | 0.914 | 0.251 | 0.189 | 0.268 | 0.198 | 0.192
EKVX | 0.424 | 0.451 | 0.436 | 0.469 | 1.14 | 0.897 | 0.856 | 1.08 | 0.982 | 1.08 | 0.849 | 0.851 | 1.19 | 0.941 | 0.373 | 0.356 | 0.549 | 0.348 | 0.361
NCI-H1975 | 0.842 | 0.794 | 0.835 | 0.525 | 1.27 | 0.948 | 1.26 | 1.39 | 1.14 | 1.19 | 1.03 | 1.12 | 1.09 | 1.15 | 0.656 | 0.526 | 0.747 | 0.726 | 0.649
NCI-H520 | 0.406 | 0.437 | 0.347 | 0.411 | 1.32 | 0.999 | 1.28 | 1.18 | 1.37 | 1.19 | 0.889 | 1.24 | 1.08 | 1.05 | 0.215 | 0.186 | 0.236 | 0.261 | 0.168
NCI-H647 | 0.273 | 0.276 | 0.245 | 0.317 | 1.6 | 1.01 | 1.13 | 1.43 | 1.07 | 1.7 | 1.02 | 1.26 | 1.21 | 1.35 | 0.423 | 0.396 | 0.501 | 0.457 | 0.458
NCI-H1755 | 0.649 | 0.581 | 0.682 | 0.535 | 1.06 | 0.846 | 0.555 | 1.14 | 1.03 | 1.01 | 0.999 | 0.989 | 1.1 | 0.995 | 0.462 | 0.464 | 0.462 | 0.463 | 0.453
SK-LU-1 | 0.371 | 0.321 | 0.302 | 0.174 | 0.773 | 0.485 | 0.84 | 0.79 | 0.79 | 1.45 | 0.835 | 1.1 | 1.11 | 1.35 | 0.456 | 0.276 | 0.352 | 0.376 | 0.377
LXF-289 | 0.174 | 0.192 | 0.205 | 0.261 | 1.12 | 0.882 | 0.98 | 1 | 0.908 | 1.01 | 0.935 | 0.969 | 0.997 | 0.949 | 0.708 | 0.548 | 0.62 | 0.625 | 0.59
